How the values were obtained:
[1] = test system: cyclin B1 expression; test: immunoblotting of cyclin B1 in Ramos cells; type: cell-based, human; conditions: 24 h
Method: Cells were seeded at a density of 2 × 10^6 cells, treated as specified and harvested by centrifugation at 3000 rpm for 5 min, followed by freezing in liquid nitrogen. The cell pellets were thawed on ice and quick-frozen and defrozen in liquid nitrogen for three times, then lysed on ice in lysis buffer (20 mM Tris-HCl, 150 mM NaCl, 1% v/v Triton X-100, 0.5 mM EDTA, 10 mM NaF, 2.5 mM Na4P2O7, protease inhibitor (Sigma, #P2714)) for 30 min, accompanied by vortexing. Subsequently, centrifugation 13,300 rpm for 15 min purified cell lysates from cell debris. The supernatant was transferred to a new tube and the protein concentration was determined by Bradford assay. The samples were diluted with sample buffer. SDS-Page and Western Blot were conducted in accordance with standard workflows. […] The antibody baths were stored at 4 °C and re-used.
The density of the individual protein band was determined using Image Studio^TM Lite Version 5.2. The density of each protein was divided by the average of all bands of this protein. The ratios of the protein of interest were normalized to the ratio of the respective loading control. To determine the fold change, each normalized ratio was divided by the normalized band of the control line (untreated cells). Fold change is 1 for the control line, n ≥ 2. The results are shown as mean ± standard deviation and were visualized with GraphPad Prism 7.

[2] = test system: Jurkat; conditions: read-out: IC50 (Jurkat); cytotoxicity, 24 h
Method: (§2) The resazurin reduction assay, which is also known as AlamarBlue® assay, was used for the determination of cell viability in all cytotoxicity determinations shown in the present work, as previously described [22]. Briefly, cells were seeded at a specific density depending on the incubation time (24 h: 1 × 10^6 cells/ml) in a 96-well plate and incubated with increasing compound concentrations (0.01–30 µM). After the specified treatment time, resazurin (Sigma, #R7017) was added to a final concentration of 40 µM. […] The viability of control cells was set to 100% and all other values were normalized to the control condition, the dose-response curves were then fitted with Prism v7.01 (GraphPad software, La Jolla, CA, USA). The reduction of resazurin to resorufin is proportional to aerobic respiration; therefore, it is used as a measure for the cell viability and cytotoxicity of a tested compound.

[3] = test system: FL169 follicular lymphoma cells; conditions: read-out: IC50 (FL169); primary patient cells, 24 h
Description: (§3) For chronic lymphocytic leukemia, mononuclear cells were isolated from peripheral blood using a Ficoll gradient (GE Healthcare). Primary cells from other lymphoma entities were isolated as previously described [80]. All cells were cryopreserved after isolation and thawed as previously described [81].
(§4) The resazurin reduction assay, which is also known as AlamarBlue® assay, was used for the determination of cell viability in all cytotoxicity determinations shown in the present work, as previously described [22]. Briefly, cells were seeded at a specific density depending on the incubation time (24 h: 1 × 10^6 cells/ml) in a 96-well plate and incubated with increasing compound concentrations (0.01–30 µM). After the specified treatment time, resazurin (Sigma, #R7017) was added to a final concentration of 40 µM. […] The viability of control cells was set to 100% and all other values were normalized to the control condition, the dose-response curves were then fitted with Prism v7.01 (GraphPad software, La Jolla, CA, USA).

[4] = biological target: T1, DYRK4 (Homo sapiens, UniProt Q9NR20); test: kinome screen (33PanQinase); type: biochemical
T1 construct: purchased Reaction Biology Europe GmbH (formerly ProQinase)
T1 sequence (Q9NR20 1-520): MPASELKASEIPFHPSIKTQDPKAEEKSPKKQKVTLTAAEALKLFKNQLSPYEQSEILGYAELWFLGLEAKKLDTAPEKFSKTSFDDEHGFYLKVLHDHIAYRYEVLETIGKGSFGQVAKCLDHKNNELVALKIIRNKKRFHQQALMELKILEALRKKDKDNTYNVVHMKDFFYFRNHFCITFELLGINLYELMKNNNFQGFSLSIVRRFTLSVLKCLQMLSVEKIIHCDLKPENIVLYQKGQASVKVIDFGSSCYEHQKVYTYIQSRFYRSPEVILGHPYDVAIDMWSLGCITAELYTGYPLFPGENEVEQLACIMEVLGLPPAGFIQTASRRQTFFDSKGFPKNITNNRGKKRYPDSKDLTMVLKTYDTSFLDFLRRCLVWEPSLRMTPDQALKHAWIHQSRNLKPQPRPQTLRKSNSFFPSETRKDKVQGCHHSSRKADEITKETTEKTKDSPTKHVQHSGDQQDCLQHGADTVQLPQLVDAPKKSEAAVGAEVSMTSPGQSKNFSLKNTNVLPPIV
Method: The Kinome Screening was performed by Reaction Biology Europe GmbH (http://reactionbiology.com; Freiburg i. Br., Germany). […] A kinase inhibition profile of the three meriolins was determined by measuring residual activity at two concentrations each in single values in 335 wild-type protein kinase assays.
The residual activity was calculated as: Res.Activity%=100x(Signalofcompound−lowcontrol/highcontrol−lowcontrol)

[5] = test system: K562; conditions: read-out: IC50 (K562); cytotoxicity, 24 h
Method: as §2

[6] = test system: DLBCL177 diffuse large B cell lymphoma cells; conditions: read-out: IC50 (DLBCL177); primary patient cells, 24 h
Description: as §3, §4

[7] = test system: FL100 follicular lymphoma cells; conditions: read-out: IC50 (FL100); primary patient cells, 24 h
Description: as §3, §4

[8] = test system: KOPTK1; conditions: read-out: IC50 (KOPTK1); cytotoxicity, 24 h
Method: as §2

[9] = biological target: T2, AKT2 (Homo sapiens, UniProt P31751); test: kinome screen (33PanQinase); type: biochemical
T2 construct: purchased Reaction Biology Europe GmbH (formerly ProQinase)
T2 sequence (P31751 whole entry): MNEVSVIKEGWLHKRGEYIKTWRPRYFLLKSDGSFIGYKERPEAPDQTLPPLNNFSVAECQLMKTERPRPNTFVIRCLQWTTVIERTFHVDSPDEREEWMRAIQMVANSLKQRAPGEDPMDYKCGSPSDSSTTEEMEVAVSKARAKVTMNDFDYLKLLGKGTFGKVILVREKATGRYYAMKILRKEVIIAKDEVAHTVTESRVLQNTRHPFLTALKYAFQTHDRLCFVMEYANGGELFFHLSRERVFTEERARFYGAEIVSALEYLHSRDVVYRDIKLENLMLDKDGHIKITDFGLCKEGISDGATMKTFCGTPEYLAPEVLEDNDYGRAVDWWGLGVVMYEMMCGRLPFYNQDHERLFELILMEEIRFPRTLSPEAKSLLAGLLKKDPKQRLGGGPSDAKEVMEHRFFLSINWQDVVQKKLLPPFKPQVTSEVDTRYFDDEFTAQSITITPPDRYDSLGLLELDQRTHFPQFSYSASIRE
Method: (§1) The Kinome Screening was performed by Reaction Biology Europe GmbH (http://reactionbiology.com; Freiburg i. Br., Germany).

[10] = biological target: T3, CDK9/CycK (Homo sapiens, UniProt P50750); test: kinome screen (33PanQinase); type: biochemical
T3 construct: purchased Reaction Biology Europe GmbH (formerly ProQinase)
T3 sequence (P50750 whole entry): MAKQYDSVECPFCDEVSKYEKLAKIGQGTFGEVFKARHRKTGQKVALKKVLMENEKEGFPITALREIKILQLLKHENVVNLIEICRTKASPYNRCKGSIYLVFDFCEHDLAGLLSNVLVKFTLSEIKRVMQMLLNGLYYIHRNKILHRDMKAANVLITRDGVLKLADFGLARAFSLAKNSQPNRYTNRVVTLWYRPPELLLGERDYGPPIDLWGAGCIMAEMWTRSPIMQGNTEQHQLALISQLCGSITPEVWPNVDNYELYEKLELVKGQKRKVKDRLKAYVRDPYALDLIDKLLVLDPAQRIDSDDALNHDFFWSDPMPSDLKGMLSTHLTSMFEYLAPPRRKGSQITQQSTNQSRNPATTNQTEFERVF
T3 sequence (O75909 whole entry partner): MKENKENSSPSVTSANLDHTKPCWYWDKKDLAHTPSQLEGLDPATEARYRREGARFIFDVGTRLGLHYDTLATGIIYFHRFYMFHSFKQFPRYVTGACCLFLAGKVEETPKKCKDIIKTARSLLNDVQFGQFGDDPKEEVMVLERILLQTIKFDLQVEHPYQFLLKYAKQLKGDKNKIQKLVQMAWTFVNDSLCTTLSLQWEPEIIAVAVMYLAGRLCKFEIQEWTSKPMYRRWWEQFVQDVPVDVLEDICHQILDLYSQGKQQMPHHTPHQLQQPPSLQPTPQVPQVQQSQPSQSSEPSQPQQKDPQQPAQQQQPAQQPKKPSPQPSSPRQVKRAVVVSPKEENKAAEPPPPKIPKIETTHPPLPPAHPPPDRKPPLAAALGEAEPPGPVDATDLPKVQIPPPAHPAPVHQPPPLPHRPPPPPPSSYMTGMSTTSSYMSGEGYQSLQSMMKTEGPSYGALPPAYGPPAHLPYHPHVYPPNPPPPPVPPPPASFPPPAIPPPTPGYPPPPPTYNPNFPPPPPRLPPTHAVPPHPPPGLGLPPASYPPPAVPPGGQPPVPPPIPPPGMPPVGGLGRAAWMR
Method: as §1

[11] = biological target: T4, WNK3 (Homo sapiens, UniProt Q9BYP7); test: kinome screen (33PanQinase); type: biochemical
T4 construct: purchased Reaction Biology Europe GmbH (formerly ProQinase)
T4 sequence (Q9BYP7 whole entry): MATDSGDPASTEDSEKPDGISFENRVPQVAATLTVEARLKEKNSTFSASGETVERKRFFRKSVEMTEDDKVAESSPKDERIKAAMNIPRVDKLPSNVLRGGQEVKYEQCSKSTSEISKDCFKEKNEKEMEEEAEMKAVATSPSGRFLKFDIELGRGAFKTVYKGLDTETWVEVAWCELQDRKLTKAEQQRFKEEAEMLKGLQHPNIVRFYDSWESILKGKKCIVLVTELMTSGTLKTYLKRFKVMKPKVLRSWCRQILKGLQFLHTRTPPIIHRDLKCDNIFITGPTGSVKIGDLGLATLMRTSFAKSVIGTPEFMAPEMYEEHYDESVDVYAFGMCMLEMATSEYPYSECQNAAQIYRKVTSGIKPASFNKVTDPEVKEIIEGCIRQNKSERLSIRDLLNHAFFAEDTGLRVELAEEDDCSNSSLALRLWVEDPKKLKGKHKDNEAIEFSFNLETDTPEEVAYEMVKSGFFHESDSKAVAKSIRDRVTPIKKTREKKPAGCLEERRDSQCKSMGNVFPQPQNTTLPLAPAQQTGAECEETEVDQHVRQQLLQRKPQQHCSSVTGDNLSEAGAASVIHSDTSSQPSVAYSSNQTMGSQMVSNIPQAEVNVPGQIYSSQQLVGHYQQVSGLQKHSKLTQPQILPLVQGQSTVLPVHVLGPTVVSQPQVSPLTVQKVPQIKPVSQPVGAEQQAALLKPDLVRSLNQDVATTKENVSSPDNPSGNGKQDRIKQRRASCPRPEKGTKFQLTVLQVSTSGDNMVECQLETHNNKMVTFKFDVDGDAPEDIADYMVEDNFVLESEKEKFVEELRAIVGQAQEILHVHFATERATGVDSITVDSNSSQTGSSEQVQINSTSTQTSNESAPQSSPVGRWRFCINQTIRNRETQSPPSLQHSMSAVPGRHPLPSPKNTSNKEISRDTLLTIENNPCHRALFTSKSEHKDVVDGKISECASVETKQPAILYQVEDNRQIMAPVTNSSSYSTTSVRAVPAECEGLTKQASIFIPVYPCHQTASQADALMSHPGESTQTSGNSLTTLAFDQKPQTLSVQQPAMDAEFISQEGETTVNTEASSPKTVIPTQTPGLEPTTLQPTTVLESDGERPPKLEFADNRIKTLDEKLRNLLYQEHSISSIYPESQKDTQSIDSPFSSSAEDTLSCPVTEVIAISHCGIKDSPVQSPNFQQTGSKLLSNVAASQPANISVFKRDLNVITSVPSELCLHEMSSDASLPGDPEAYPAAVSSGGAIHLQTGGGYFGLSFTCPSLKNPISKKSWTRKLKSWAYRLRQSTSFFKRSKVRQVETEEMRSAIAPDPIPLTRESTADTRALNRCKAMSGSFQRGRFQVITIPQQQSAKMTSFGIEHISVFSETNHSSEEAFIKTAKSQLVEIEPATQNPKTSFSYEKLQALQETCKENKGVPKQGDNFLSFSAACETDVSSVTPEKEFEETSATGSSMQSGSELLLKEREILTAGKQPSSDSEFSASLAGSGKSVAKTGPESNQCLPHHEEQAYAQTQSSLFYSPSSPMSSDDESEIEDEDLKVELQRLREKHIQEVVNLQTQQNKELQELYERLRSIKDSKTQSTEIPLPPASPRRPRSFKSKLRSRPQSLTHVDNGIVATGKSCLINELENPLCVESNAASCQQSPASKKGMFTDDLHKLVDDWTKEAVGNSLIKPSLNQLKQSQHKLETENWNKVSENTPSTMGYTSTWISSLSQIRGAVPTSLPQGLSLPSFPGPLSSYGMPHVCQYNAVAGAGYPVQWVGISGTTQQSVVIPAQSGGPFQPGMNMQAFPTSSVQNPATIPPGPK
Method: as §1

[12] = biological target: T5, MAP3K11 (Homo sapiens, UniProt Q16584); test: kinome screen (33PanQinase); type: biochemical
T5 construct: purchased Reaction Biology Europe GmbH (formerly ProQinase)
T5 sequence (Q16584 whole entry): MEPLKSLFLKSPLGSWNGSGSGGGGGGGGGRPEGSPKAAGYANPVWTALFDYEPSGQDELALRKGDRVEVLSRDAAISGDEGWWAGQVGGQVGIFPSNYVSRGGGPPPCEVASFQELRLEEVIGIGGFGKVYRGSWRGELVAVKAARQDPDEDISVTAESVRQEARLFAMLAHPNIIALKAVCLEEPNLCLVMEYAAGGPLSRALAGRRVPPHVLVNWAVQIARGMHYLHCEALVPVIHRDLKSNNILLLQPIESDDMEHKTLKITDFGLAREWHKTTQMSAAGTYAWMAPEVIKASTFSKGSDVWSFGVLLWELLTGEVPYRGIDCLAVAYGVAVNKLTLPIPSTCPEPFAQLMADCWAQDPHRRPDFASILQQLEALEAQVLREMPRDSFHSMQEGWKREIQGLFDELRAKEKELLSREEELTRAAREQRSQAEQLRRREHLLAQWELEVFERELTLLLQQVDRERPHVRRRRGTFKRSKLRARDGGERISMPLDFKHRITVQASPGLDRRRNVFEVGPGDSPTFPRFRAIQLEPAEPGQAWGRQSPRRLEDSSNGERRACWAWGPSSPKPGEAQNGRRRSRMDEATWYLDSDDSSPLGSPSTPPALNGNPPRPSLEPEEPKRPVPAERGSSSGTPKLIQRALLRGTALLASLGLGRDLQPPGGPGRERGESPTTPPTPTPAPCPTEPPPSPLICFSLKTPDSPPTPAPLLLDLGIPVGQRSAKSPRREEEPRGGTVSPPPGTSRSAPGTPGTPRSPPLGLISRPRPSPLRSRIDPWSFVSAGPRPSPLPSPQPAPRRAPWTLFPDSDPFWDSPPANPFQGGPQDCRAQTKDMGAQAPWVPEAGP
Method: as §1

[13] = biological target: T6, MYLK (Homo sapiens, UniProt Q15746); test: kinome screen (33PanQinase); type: biochemical
T6 construct: purchased Reaction Biology Europe GmbH (formerly ProQinase)
Method: as §1

[14] = test system: CLL16 chronic lymphocytic leukemia cells; conditions: read-out: IC50 (CLL16); primary patient cells, 24 h
Description: as §3, §2

[15] = test system: Ramos cells; test: cell cycle analysis (Nicoletti assay); type: cell-based, human; conditions: 24 h, sublethal dose, with QVD
Method: DNA content during cell cycle and hypodiploid apoptotic nuclei were measured by the method of Nicoletti et al.. […] Hypodiploid nuclei were measured in logarithmic mode for apoptosis determination. Flow-cytometry analysis was performed on an LSRFortessa^TM (Becton, Dickinson, Heidelberg, Germany) and data analysis was performed using FlowJo_V10 (BD Biosciences).

[16] = test system: FL303 follicular lymphoma cells; conditions: read-out: IC50 (FL303); primary patient cells, 24 h
Description: as §3, §2

[17] = test system: HL60; conditions: read-out: IC50 (HL60); cytotoxicity, 24 h
Method: as §2

[18] = test system: SUPB15; conditions: read-out: IC50 (SUPB15); cytotoxicity, 24 h
Method: as §2

[19] = test system: CLL68 chronic lymphocytic leukemia cells; conditions: read-out: IC50 (CLL68); primary patient cells, 24 h
Description: as §3, §4

Row | SMILES | expression of cyclin B1 [1] | IC50 [2] | IC50 [3] | residual kinase activity ([4]; 0.3 µM) | IC50 [5] | IC50 [6] | IC50 [7] | IC50 [8] | residual kinase activity ([9]; 0.3 µM) | residual kinase activity ([10]; 0.3 µM) | residual kinase activity ([11]; 0.3 µM) | residual kinase activity ([12]; 0.3 µM) | residual kinase activity ([13]; 0.3 µM) | IC50 [14] | effect on cell cycle phases [15] | IC50 [16] | IC50 [17] | IC50 [18] | IC50 [19] | other results
1 | COc1ccnc2[nH]cc(-c3cc(N)nc(N)c3)c12 [meriolin 16] | reduced the expression of cyclin B1 | 30 nM | 2820 nM | 7 % of control | 40 nM | 80 nM | 60 nM | 10 nM | 79 % of control | 0 % of control | 85 % of control | 74 % of control | 71 % of control | 60 nM | only a slight shift to G2 phase | 60 nM | 10 nM | 20 nM | 60 nM | residual kinase activity ([4]; 0.03 µM): 39 % of control; residual kinase activity ([9]; 0.03 µM): 98 % of control; residual kinase activity ([10]; 0.03 µM): 7 % of control; residual kinase activity ([11]; 0.03 µM): 85 % of control; residual kinase activity ([12]; 0.03 µM): 100 % of control; residual kinase activity ([13]; 0.03 µM): 103 % of control
2 | c1ccc(CNc2cc(-c3c[nH]c4ncccc34)ccn2)cc1 [meriolin 36] | rather increased the expression of cyclin B1 | 1430 nM | 100 nM | 66 % of control | 940 nM | 50 nM | 90 nM | 1220 nM | 102 % of control | 2 % of control | 106 % of control | 45 % of control | 62 % of control | 200 nM | only a slight shift to G2 phase | 170 nM | 1230 nM | 1650 nM | 420 nM | residual kinase activity ([4]; 3 µM): 22 % of control; residual kinase activity ([9]; 3 µM): 75 % of control; residual kinase activity ([10]; 3 µM): 0 % of control; residual kinase activity ([11]; 3 µM): 104 % of control; residual kinase activity ([12]; 3 µM): 4 % of control; residual kinase activity ([13]; 3 µM): 25 % of control
